US8846951B2 (AbbVie Inc., priority 2009, dated 2014)
Where two headings read alike, the source gives them in different places.

How the values were obtained:
5HT2B receptors = target: T1, 5HT2B receptors (Homo sapiens, UniProt P41595); assay: Human 5-HT2B functional high throughput screening assay in CHO-K1 cells (calcium flux); type: cell-based; conditions: for EC50: CHO-K1 cells, calcium flux
T1 construct: expressed in transfected cells; host or cells: CHO-K1 cells
Method: (§1) (iii) Human 5-HT2C and 5-HT2B Functional High Throughput Screening Assays in CHO-K1 Cells
(§2) CHO-K1 cells over-expressing 5HT2C or 5HT2B receptors were grown in 1272 cm^2 flasks to 70-80% confluency in UltraCHO media (Lonza, Walkersville, Md.) supplemented with 1% dialyzed fetal bovine serum (FBS), 250 μg/mL zeocin, 100 U/mL penicillin and 100 μg/mL streptomycin, and 400 μg/mL geneticin. The cells were dissociated from the flasks using 0.05% trypsin, resuspended in Recovery™ cell culture freezing medium (Invitrogen, Carlsbad, Calif.) and stored in liquid nitrogen until use. The calcium flux experiments were done using frozen cells. The cells were diluted in media containing 1% dialyzed FBS and 100 U/mL penicillin and 100 μg/mL streptomycin and plated into 384-well poly-D-Lysine coated plates (15,000 cells/well). Then the plates were incubated overnight in a cell incubator at 37° C., 5% CO2. On the next day, the growth media was replaced with media without FBS and further incubated overnight. On day three, the changes in intracellular Ca^2+ were determined using calcium sensitive fluorescent dye, Ca4 (MDS Analytical Technologies, Sunnyvale, Calif.) by loading 15 μL of diluted dye in Hank's Balanced Salt Solution and 20 mM Hepes buffer (pH 7.4) with final concentration of 2.5 mM probenecid into the cells containing media. Then the cells were incubated at room temperature for 60 minutes in dark.
(§3) After incubation, the cell plates were transferred to FLIPR™ (MDS) and their fluorescence measurements were read at an excitation wavelength of 480 nm and an emission wavelength of 530 nm at 25° C. The baseline fluorescence was measured for the first 10 seconds and then 15 μL of 4× concentration of serotonin/test compound was added to the cells. The fluorescence intensity was captured every second for the first 1 minute followed by every 5 seconds for an additional 2 minutes. The increase in fluorescent response by a test compound was normalized to the response of serotonin and used to determine agonist activity. The concentration response of compounds was done from a starting concentration of 10 μM, 1:10 dilution across 6 wells with a final dimethyl sulfoxide concentration of 0.2% and was fitted using a 4-parameter logistic equation. The concentration at which a compound exerts half its maximal effect was named as ‘effective concentration 50’ or ‘EC50’. Emax is the maximum functional response or efficacy expressed as a percentage relative to the effect of serotonin.

5HT2C receptors = target: T2, 5HT2C receptors (Homo sapiens, UniProt P28335); assay: Human 5-HT2C functional high throughput screening assay in CHO-K1 cells (calcium flux); type: cell-based; parameters: expressed in transfected cells; host or cells: CHO-K1 cells; conditions: for Emax: CHO-K1, 5-HT2C, maximum functional response as percentage relative to the effect of serotonin; for EC50: CHO-K1 cells, calcium flux
T2 sequence (P28335 33-458): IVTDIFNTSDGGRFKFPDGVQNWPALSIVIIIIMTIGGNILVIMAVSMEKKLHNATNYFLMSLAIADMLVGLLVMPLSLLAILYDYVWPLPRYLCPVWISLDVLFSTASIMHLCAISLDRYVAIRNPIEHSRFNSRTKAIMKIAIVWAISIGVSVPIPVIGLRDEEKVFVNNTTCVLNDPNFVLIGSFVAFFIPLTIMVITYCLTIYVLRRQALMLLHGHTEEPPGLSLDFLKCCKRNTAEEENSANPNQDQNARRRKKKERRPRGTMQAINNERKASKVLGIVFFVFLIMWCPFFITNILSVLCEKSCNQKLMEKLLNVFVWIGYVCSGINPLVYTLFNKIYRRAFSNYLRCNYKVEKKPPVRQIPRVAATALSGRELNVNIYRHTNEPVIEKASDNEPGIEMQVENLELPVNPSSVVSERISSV
Method: as §1, §2, §3

[1] = 5-HT2B agonist activity, read-out: EC50
[2] = 5-HT2B, maximum functional response as percentage relative to the effect of serotonin
[3] = 5-HT2C agonist activity, read-out: EC50

T1 sequence (P41595 whole entry): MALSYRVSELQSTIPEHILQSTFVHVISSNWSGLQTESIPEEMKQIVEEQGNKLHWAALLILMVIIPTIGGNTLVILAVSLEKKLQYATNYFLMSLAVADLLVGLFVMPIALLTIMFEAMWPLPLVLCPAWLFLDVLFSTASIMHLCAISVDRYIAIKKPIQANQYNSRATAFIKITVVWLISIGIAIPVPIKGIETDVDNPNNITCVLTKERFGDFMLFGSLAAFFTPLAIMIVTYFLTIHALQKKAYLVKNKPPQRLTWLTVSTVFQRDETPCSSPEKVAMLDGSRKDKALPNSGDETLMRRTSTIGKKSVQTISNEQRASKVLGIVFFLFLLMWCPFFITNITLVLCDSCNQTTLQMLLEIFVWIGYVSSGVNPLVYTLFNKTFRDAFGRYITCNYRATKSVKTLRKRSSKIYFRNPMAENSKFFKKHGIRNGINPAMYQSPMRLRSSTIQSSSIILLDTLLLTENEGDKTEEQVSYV

Structure (SMILES) | EC50 (5HT2B receptors; [1]) [nM] | Emax (5HT2B receptors; [2]) | EC50 (5HT2C receptors; [3]) [nM] | Emax (5HT2C receptors; read-out: Emax) [%] | Emax (5HT2B receptors; CHO-K1) [%] | EC50 (5HT2B receptors; EC50, 5-HT2B agonist activity) [nM] | Emax (5HT2C receptors) [%] | EC50 (5HT2C receptors; EC50, 5-HT2C agonist activity) [nM]
Fc1ccc2c(c1)OCC[C@H]1CN(Cc3ccccc3)C[C@H]21 (relative stereo) [Example 107, Trans-2-benzyl-8-fluoro-2,3,3a,4,5,10b-hexahydro-1H-[1]benzoxepino[4,5-c]pyrrole] | – | – | – | – | 15 | 700 | 110 | 90
Fc1ccc2c(c1)OCC[C@H]1CNC[C@H]21 (relative stereo) [Example 109, Trans-8-fluoro-2,3,3a,4,5,10b-hexahydro-1H-[1]benzoxepino[4,5-c]pyrrole] | – | – | – | – | 55 | 300 | > 120 | 40
CN1C[C@H]2CNC(=O)c3c(OC(F)(F)F)cccc3[C@@H]2C1 (relative stereo) [Example 110, Trans-2-methyl-7-(trifluoromethoxy)-1,2,3,3a,4,5-hexahydrobenzo[c]pyrrolo[3,4-e]azepin-6(10bH)-one] | – | – | – | – | 15 | 900 | > 120 | –
O=S1(=O)NC[C@@H]2CNC[C@H]2c2ccccc21 (relative stereo) [Example 111, Trans-2,3,3a,4,5,10b-hexahydro-1H-pyrrolo[3,4-d][1,2]benzothiazepine 6,6-dioxide] | > 10000 | – | 6000 | – | 20 | – | 100 | –
O=C1NC[C@@H]2CNC[C@H]2c2ccc(OCCc3ccccc3)cc21 (relative stereo) [Example 123, Trans-8-phenethoxy-1,2,3,3a,4,5-hexahydrobenzo[e]pyrrolo[3,4-c]azepin-6(10bH)-one] | – | inactive | – | – | – | > 10000 | 120 | 10
CN1C[C@H]2CNC(=O)c3cc(C(=O)Nc4ccccc4)ccc3[C@@H]2C1 (relative stereo) [Example 128, Trans-2-methyl-6-oxo-N-phenyl-1,2,3,3a,4,5,6,10b-octahydrobenzo[e]pyrrolo[3,4-c]azepine-8-carboxamide] | > 10000 | inactive | 2000 | 50 | – | – | – | –
COC(=O)c1ccc2c(c1)C(=O)NC[C@@H]1CN(Cc3ccccc3)C[C@@H]21 (relative stereo) [Example 129, Trans-methyl 2-benzyl-6-oxo-1,2,3,3a,4,5,6,10b-octahydrobenzo[e]pyrrolo[3,4-c]azepine-8-carboxylate] | > 10000 | inactive | 200 | > 120 | – | – | – | –
COc1ccc2c(c1)C(=O)NC[C@@H]1CN(Cc3ccccc3)C[C@H]21 (relative stereo) [Example 130, Cis-2-benzyl-8-methoxy-1,2,3,3a,4,5-hexahydrobenzo[e]pyrrolo[3,4-c]azepin-6(10bH)-one] | > 10000 | inactive | 900 | 100 | – | – | – | –
COc1ccc(-c2ccc3c(c2)C(=O)NC[C@@H]2CN(C)C[C@@H]32)cc1 (relative stereo) [Example 131, Trans-8-(4-methoxyphenyl)-2-methyl-1,2,3,3a,4,5-hexahydrobenzo[e]pyrrolo[3,4-c]azepin-6(10bH)-one] | > 10000 | inactive | – | > 120 | – | – | – | –
CN1C[C@H]2CNC(=O)c3cc(-c4cccc(OC(F)(F)F)c4)ccc3[C@@H]2C1 (relative stereo) [Example 132, Trans-2-methyl-8-(3-(trifluoromethoxy)phenyl)-1,2,3,3a,4,5-hexahydrobenzo[e]pyrrolo[3,4-c]azepin-6(10bH)-one] | > 10000 | inactive | 20 | > 120 | – | – | – | –

The next lines start with results.

EC50 (5HT2B receptors; [1]) [nM] | Emax (5HT2B receptors; [2]) | EC50 (5HT2C receptors; [3]) [nM] | Emax (5HT2C receptors; read-out: Emax) [%] | Structure (SMILES) | Emax (5HT2B receptors; CHO-K1) [%] | EC50 (5HT2B receptors; EC50, 5-HT2B agonist activity) [nM] | Emax (5HT2C receptors) [%] | EC50 (5HT2C receptors; EC50, 5-HT2C agonist activity) [nM]
> 10000 | inactive | 200 | 110 | c1ccc(-c2ccc3c(c2)OCC[C@H]2CNC[C@H]32)cc1 (relative stereo) [Example 108, Trans-8-phenyl-2,3,3a,4,5,10b-hexahydro-1H-[1]benzoxepino[4,5-c]pyrrole] | – | – | – | –
> 10000 | inactive | 5000 | 80 | CN1C[C@H]2CNC(=O)c3c(-c4ccccc4)cccc3[C@@H]2C1 (relative stereo) [Example 114, Trans-2-methyl-7-phenyl-1,2,3,3a,4,5-hexahydrobenzo[c]pyrrolo[3,4-e]azepin-6(10bH)-one] | – | – | – | –
> 10000 | inactive | 200 | > 120 | O=C1NC[C@@H]2CN(Cc3ccccc3)C[C@H]2c2ccc(O)cc21 (relative stereo) [Example 117, Trans-2-benzyl-8-hydroxy-1,2,3,3a,4,5-hexahydrobenzo[e]pyrrolo[3,4-c]azepin-6(10bH)-one] | – | – | – | –
> 10000 | inactive | 100 | > 120 | O=C1NC[C@@H]2CN(Cc3ccccc3)C[C@H]2c2ccc(OCCc3cccc(F)c3)cc21 (relative stereo) [Example 119, Trans-2-benzyl-8-(3-fluorophenethoxy)-1,2,3,3a,4,5-hexahydrobenzo[e]pyrrolo[3,4-c]azepin-6(10bH)-one] | – | – | – | –
> 10000 | inactive | 200 | 120 | O=C1NC[C@@H]2CN(Cc3ccccc3)C[C@H]2c2ccc(OCCc3ccccc3)cc21 (relative stereo) [Example 121, Trans-2-benzyl-8-phenethoxy-1,2,3,3a,4,5-hexahydrobenzo[e]pyrrolo[3,4-c]azepin-6(10bH)-one] | – | – | – | –
> 10000 | inactive | 6000 | 100 | CN1C[C@H]2CNC(=O)c3cc(C(=O)N4CCCCC4)ccc3[C@@H]2C1 (relative stereo) [Example 122, Trans-2-methyl-8-(piperidine-1-carbonyl)-1,2,3,3a,4,5-hexahydrobenzo[e]pyrrolo[3,4-c]azepin-6(10bH)-one] | – | – | – | –
> 10000 | inactive | 20 | > 120 | O=C1NC[C@@H]2CNC[C@H]2c2ccc(OCCc3cccc(F)c3)cc21 (relative stereo) [Example 124, Trans-8-(3-fluorophenethoxy)-1,2,3,3a,4,5-hexahydrobenzo[e]pyrrolo[3,4-c]azepin-6(10bH)-one] | – | – | – | –
> 10000 | inactive | 2000 | 90 | CNC(=O)c1ccc2c(c1)C(=O)NC[C@@H]1CN(C)C[C@@H]21 (relative stereo) [Example 125, Trans-N,2-dimethyl-6-oxo-1,2,3,3a,4,5,6,10b-octahydrobenzo[e]pyrrolo[3,4-c]azepine-8-carboxamide] | – | – | – | –
> 10000 | inactive | 6000 | 60 | CN1C[C@H]2CNC(=O)c3cc(C(=O)NCCc4ccccc4)ccc3[C@@H]2C1 (relative stereo) [Example 126, Trans-2-methyl-6-oxo-N-phenethyl-1,2,3,3a,4,5,6,10b-octahydrobenzo[e]pyrrolo[3,4-c]azepine-8-carboxamide] | – | – | – | –
> 10000 | inactive | 1000 | 80 | CN1C[C@H]2CNC(=O)c3cc(C(=O)NCCc4cccc(C(F)(F)F)c4)ccc3[C@@H]2C1 (relative stereo) [Example 127, Trans-2-methyl-6-oxo-N-(3-(trifluoromethyl)phenethyl)-1,2,3,3a,4,5,6,10b-octahydrobenzo[e]pyrrolo[3,4-c]azepine-8-carboxamide] | – | – | – | –
